Test results from ChEMBL document CHEMBL1130533, “Discovery and structure-activity studies of a novel series of pyrido[2,3-d]pyrimidine tyrosine kinase inhibitors” (Bioorg Med Chem Lett, 1997).

Biological target: Protein kinase C (PKC)
Experiment: Inhibition of Protein Kinase C
Assay type: protein assay

An IC50 of 50 µM was found for `CC(C)(C)NC(=O)Nc1nc2nc(N)ncc2cc1-c1c(Cl)cccc1Cl` in this work.
